We go through 4 compounds from patent US20250281519A1, “NUCLEOTIDE AND NUCLEOSIDE THERAPEUTIC COMPOSITIONS, COMBINATIONS AND USES RELATED THERETO” (EMORY UNIVERSITY, priority 2021, published 2025).

The target in data set [1] is human DNA polymerase gamma (Homo sapiens (Human), UniProt P54098). In words: Human DNA polymerase inhibition assay, pol gamma.
Data set [2] concerns the target human DNA polymerase beta (Homo sapiens (Human), UniProt P06746). In words: Human DNA polymerase inhibition assay, pol beta. To be noted: read-out: Human DNA pol β (IC50 uM).
The target in data set [3] is human DNA polymerase alpha (Homo sapiens (Human), UniProt P09884). In words: Human DNA polymerase inhibition assay, pol alpha. To be noted: read-out: Human DNA pol α (IC50 uM).
In the next data set the test system is Adenovirus. In words: Inhibition of DNA virus replication, Adenovirus. Type of data set: cell-based. Particulars: unidentified adenovirus.
The test system of the next data set is MRC-5 Cells. In words: Cytotoxicity in MRC-5 cells (DNA virus table). The format is cell-based. Particulars: beside VZV.
The nature of data set [4]: Cytotoxicity in MRC-5 cells (DNA virus table). The format is cell-based. To be noted: human, MRC-5 cells; beside HCMV.
Another data set relates to HIV. In words: HIV infected PBMC assay. Type of data set: cell-based. To be noted: Human immunodeficiency virus 1, PBMC. The procedure:
Fresh human peripheral blood mononuclear cells (PBMCs) were obtained from a commercial source (Biological Specialty) and were determined to be seronegative for HIV and HBV. Depending on the volume of donor blood received, the leukophoresed blood cells were washed several times with PBS. After washing, the leukophoresed blood was diluted 1:1 with Dulbecco's phosphate buffered saline (PBS) and layered over 15 mL of Ficoll-Hypaque density gradient in a 50 ml conical centrifuge tube. These tubes were centrifuged for 30 min at 600 g. Banded PBMCs were gently aspirated from the resulting interface and washed three times with PBS. After the final wash, cell number was determined by Trypan Blue dye exclusion and cells were re-suspended at 1×10^ 6 cells/mL in RPMI 1640 with 15% Fetal Bovine Serum (FBS), 2 mmol/L L-glutamine, 2 μg/mL PHA-P, 100 U/mL penicillin and 100 μg/mL streptomycin and allowed to incubate for 48-72 hours at 37° C. After incubation, PBMCs were centrifuged and resuspended in tissue culture medium. […]
Following addition of test compound to the wells, 50 μL of a predetermined dilution of HIV virus (prepared from 4× of final desired in-well concentration) was added, and mixed well. […] After 7 days in culture, HIV-1 replication was quantified in the tissue culture supernatant by measurement of reverse transcriptase (RT) activity. […]

A short description of data set [5]: Cytotoxicity in HepG2 cells (XTT). The format is cell-based. To be noted: human, beside HBV. Here is the method:
The 50% cytotoxic concentration for the test materials are derived by measuring the reduction of the tetrazolium dye XTT in the treated tissue culture plates. XTT is metabolized by the mitochondrial enzyme NADPH oxidase to a soluble formazan product in metabolically active cells. XTT solution was prepared daily as a stock of 1 mg/mL in PBS. Phenazine methosulfate (PMS) stock solution was prepared at 0.15 mg/mL in PBS and stored in the dark at −20° C. XTT/PMS solution was prepared immediately before use by adding 40 µL of PMS per 1 mL of XTT solution. Fifty microliters of XTT/PMS was added to each well of the plate and the plate incubated for 2-4 hours at 37° C. The 2-4 hour incubation has been empirically determined to be within linear response range for XTT dye reduction with the indicated numbers of cells for each assay. Adhesive plate sealers were used in place of the lids, the sealed plate was inverted several times to mix the soluble formazan product and the plate was read at 450 nm (650 nm reference wavelength) with a Molecular Devices SpectraMax Plus 384 spectrophotometer. Data were collected by Softmax 4.6 software and imported into an Excel spreadsheet for analysis.
On the technique in general: Formazan colour is commonly taken as a measure of viable cells.

Data set [6] is described as follows: Cytotoxicity in PBM cells. Type of data set: cell-based. To be noted: human, PHA-P-stimulated peripheral blood mononuclear cells (PBMCs); beside HIV.
The subject of the next data set is HSV-1. In words: Inhibition of DNA virus replication, HSV-1. Type of data set: cell-based. To be noted: Human alphaherpesvirus 1.
The test system of another data set is Huh-7 Cells. In words: Cytotoxicity in Huh-7 cells (DNA virus table). To be noted: beside HSV-1. The format is cell-based.
A short description of data set [7]: Cytotoxicity in Huh-7 cells (DNA virus table). Type of data set: cell-based. To be noted: human, Huh-7 cells; beside Adenovirus.
The test system of the next data set is VZV. In words: Inhibition of DNA virus replication, VZV. The format is cell-based. Particulars: Human alphaherpesvirus 3.
The subject of a further data set is HCMV. In words: Inhibition of DNA virus replication, HCMV. The format is cell-based. To be noted: Human betaherpesvirus 5.
The test system of another data set is HBV. In words: HBV replication in HepG2.2.15 cells (viral DNA by qPCR). Type of data set: cell-based. Particulars: Hepatitis B virus. Here is the method: HepG2.2.15 cells (100 μL) in RPMI1640 medium with 10% fetal bovine serum was added to all wells of a 96-well plate at a density of 1×10^4 cells per well and the plate was incubated at 37° C. in an environment of 5% CO2 for 24 hours. Following incubation, six ten-fold serial dilutions of test compound prepared in RPMI1640 medium with 10% fetal bovine serum were added to individual wells of the plate in triplicate. Six wells in the plate received medium alone as a virus only control. The plate was incubated for 6 days at 37° C. in an environment of 5% CO2. The culture medium was changed on day 3 with medium containing the indicated concentration of each compound. One hundred microliters of supernatant was collected from each well for analysis of viral DNA by qPCR and cytotoxicity was evaluated by XTT staining of the cell culture monolayer on the sixth day.
Ten microliters of cell culture supernatant collected on the sixth day was diluted in qPCR dilution buffer (40 μg/mL sheared salmon sperm DNA) and boiled for 15 minutes. Quantitative real time PCR was performed in […] using an Applied Biosystems 7900HT Sequence Detection System and the supporting SDS 2.4 software. […]

Another data set deals with CV-B3. Particulars: read-out: EC50 against CV-B3; cited from earlier work.
The next data set deals with COXV B3. In words: CPE reduction assay, COXV B3. The format is cell-based.
Another data set in a line: in vitro. Particulars: human.
The test system of the next data set is EV70. In words: CPE reduction assay, EV70. Type of data set: cell-based. Particulars: Huh-7; EV70, strain J670/71, Huh7 cells.
The next data set deals with Huh7. In words: Cytotoxicity in Huh7 cells (enterovirus assays).
In another data set the test system is COXV B2. In words: CPE reduction assay, COXV B2. The format is cell-based. To be noted: COXV B2, strain Ohio 1, Huh7 cells.
A further data set has as its system COXV B4. In words: CPE reduction assay, COXV B4. Particulars: Huh-7; COXV B4, strain JVB, Huh7 cells. The format is cell-based.
A further data set relates to EV71. In words: CPE reduction assay, EV71. Type of data set: cell-based. Particulars: Enterovirus A.
A short description of data set [8]: Cytotoxicity in RD cells (enterovirus assays). Type of data set: cell-based. To be noted: human.
A further data set concerns EV68. In words: CPE reduction assay, EV68. The format is cell-based. Particulars: EV68, strain US/KY/14-18953, RD cells.
Data set [9] in a line: Cytotoxicity in MRC-5 cells (enterovirus assays). Type of data set: cell-based. Particulars: human, line of EV71 H.
A further data set relates to HeLa. In words: Cytotoxicity in HeLa cells (enterovirus assays). Type of data set: cell-based. Particulars: line of HRV 1059.
Data set [10] can be described thus: Cytotoxicity in HeLa cells (enterovirus assays). Type of data set: cell-based. To be noted: human, line of HRV 26.
The test system of the next data set is COXV A7. In words: CPE reduction assay, COXV A7. The format is cell-based. Particulars: Huh-7; COXV A7, strain WP Parker, Huh7 cells.
A further data set deals with COXV B1. In words: CPE reduction assay, COXV B1. Type of data set: cell-based. To be noted: Huh-7; COXV B1, strain Conn5, Huh7 cells.
The test system of a further data set is COXV A18. In words: CPE reduction assay, COXV A18. Particulars: Huh-7; COXV A18, strain G13, Huh7 cells. The format is cell-based.
In the next data set the test system is HRV. In words: CPE reduction assay, HRV. The format is cell-based. Particulars: HeLa.

Where only a bound is given, the exact number is not on record here.

Chain of human DNA polymerase alpha (P09884 whole entry): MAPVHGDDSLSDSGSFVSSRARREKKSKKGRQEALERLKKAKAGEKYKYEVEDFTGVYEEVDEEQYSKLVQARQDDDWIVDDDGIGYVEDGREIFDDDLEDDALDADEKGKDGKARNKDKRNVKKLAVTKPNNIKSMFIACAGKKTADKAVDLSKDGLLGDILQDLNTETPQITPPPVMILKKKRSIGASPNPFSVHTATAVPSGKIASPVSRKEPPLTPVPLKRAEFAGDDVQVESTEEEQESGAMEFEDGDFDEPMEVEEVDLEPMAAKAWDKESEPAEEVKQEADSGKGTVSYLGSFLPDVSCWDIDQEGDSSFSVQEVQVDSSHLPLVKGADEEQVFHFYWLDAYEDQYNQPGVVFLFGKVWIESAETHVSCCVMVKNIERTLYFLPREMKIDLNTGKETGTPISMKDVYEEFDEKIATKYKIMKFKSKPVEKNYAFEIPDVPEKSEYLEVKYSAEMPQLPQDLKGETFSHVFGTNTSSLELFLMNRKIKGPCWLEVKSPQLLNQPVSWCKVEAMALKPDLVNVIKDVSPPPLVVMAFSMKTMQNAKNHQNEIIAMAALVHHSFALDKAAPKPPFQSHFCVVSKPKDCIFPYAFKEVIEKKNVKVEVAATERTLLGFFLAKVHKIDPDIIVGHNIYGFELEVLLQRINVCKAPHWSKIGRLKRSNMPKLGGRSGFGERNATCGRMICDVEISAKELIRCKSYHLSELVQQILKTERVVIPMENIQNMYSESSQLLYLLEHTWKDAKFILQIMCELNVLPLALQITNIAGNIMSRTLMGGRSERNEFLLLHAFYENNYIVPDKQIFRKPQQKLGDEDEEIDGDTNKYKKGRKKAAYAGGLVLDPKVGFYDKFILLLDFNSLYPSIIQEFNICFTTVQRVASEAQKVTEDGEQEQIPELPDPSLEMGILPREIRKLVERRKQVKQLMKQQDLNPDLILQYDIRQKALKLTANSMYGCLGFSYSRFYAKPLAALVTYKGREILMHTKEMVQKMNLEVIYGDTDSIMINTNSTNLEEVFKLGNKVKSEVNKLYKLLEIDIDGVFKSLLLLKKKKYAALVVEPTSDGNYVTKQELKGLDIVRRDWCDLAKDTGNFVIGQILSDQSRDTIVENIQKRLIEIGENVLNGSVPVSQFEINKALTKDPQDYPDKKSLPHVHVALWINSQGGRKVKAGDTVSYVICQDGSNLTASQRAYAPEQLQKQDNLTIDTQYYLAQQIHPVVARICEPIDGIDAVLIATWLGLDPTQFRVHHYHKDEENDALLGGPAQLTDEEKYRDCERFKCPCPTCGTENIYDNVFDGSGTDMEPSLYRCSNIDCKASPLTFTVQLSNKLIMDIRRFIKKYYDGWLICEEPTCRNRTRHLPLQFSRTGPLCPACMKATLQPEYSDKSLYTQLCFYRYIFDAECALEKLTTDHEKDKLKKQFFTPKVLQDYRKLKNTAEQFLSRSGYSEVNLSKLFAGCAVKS
Chain of human DNA polymerase gamma (P54098 whole entry): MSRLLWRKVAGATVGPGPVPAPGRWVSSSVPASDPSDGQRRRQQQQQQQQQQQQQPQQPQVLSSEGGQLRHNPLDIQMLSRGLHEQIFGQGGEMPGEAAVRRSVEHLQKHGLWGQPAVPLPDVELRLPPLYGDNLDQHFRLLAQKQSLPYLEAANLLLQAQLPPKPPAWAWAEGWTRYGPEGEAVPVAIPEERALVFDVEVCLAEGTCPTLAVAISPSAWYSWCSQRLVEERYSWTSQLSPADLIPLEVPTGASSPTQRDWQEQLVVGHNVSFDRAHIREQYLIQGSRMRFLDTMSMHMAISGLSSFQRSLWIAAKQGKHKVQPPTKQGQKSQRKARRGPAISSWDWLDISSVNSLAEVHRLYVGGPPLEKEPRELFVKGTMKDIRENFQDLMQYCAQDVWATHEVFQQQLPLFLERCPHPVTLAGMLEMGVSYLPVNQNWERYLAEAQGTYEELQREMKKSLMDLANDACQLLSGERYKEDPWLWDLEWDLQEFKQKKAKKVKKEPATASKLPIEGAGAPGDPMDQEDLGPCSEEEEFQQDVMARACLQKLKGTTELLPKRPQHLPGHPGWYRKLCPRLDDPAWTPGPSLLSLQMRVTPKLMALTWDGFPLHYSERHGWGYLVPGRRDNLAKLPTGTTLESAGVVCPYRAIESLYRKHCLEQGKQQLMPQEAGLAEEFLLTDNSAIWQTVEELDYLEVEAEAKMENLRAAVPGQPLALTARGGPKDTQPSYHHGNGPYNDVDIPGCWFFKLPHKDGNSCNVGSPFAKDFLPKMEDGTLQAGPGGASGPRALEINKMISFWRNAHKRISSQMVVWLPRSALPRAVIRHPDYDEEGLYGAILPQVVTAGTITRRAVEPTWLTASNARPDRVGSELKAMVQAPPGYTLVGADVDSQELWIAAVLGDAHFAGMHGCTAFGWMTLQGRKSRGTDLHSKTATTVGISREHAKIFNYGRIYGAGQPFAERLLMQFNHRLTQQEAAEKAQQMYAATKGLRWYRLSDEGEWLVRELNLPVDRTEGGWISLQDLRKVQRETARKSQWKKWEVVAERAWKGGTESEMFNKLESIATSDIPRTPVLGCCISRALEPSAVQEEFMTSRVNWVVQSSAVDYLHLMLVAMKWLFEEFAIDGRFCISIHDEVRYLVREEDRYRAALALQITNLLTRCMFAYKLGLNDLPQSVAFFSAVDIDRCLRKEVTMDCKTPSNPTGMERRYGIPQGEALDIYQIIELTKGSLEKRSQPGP

Take `CC1(O)[C@@H](O)[C@@H](COP(=O)(O)OP(=O)(O)OP(=O)(O)O)O[C@H]1n1ccc(=O)[nH]c1=S` (stereo partly drawn): the IC50 in data set [1] was > 1000 µM; in [2] it was 588 µM; in data set [3], > 1000 µM.
On to `CC(C)OC(=O)[C@H](C)NP(=O)(OC[C@H]1O[C@@H](n2ccc(=O)[nH]c2=S)C(C)(O)[C@H]1O)Oc1ccccc1` (stereo partly drawn), for which the IC50 in the data set with Adenovirus and in the data set with HBV was > 100 µM throughout. Besides, the CC50 (with MRC-5 Cells; in data set [4]; in data set [5]; in the data set with Huh-7 Cells; in [7]) was > 100 µM throughout. In addition, the EC50 with HIV, with HSV-1, in the data set with VZV and with HCMV was > 100 µM throughout. Further, the CC50 at 7 days in data set [6] was > 100 µM.
For `CN(C)c1ccc(C(=O)O)cc1` [4-Dimethylamino benzoic acid], the EC50 with CV-B3 was 9 µM.
For the compound `CC(C)(C)C(=O)OCOP(=O)(OCOC(=O)C(C)(C)C)OC[C@H]1O[C@@H](n2ccc(=O)[nH]c2=S)[C@](C)(O)[C@@H]1O` [EIDD-2523], the EC50 in the data set on COXV B3 (Huh-7, COXV B3 (printed COXV 83 in the 3rd table), strain HA 201933, Huh7 cells) is 9.3 µM; in the data set with COXV B3 (Huh-7, COXV B3, strain Nancy, Huh7 cells) it was 0.38 µM; in the data set on EV70, 0.07 µM; in the data set on COXV B2 it was 2.65 µM; in the data set on COXV B4, > 16 µM; with EV71 (MRC5, EV71, strain H, MRC-5 cells) it was 1.71 µM. The EC50 was 5.3 µM with EV71 (EV71, strain Tainan/4643/98, RD cells); 0.38 µM with EV68; 3.37 µM with COXV A7; > 31 µM in the data set on COXV B1; 2.69 µM in the data set on COXV A18; 0.43 µM with HRV (strain 26, HeLa cells). This compound also yielded a concentration for a half-maximal effect (EC50) with HRV (strain 1059, HeLa cells) of 0.72 µM. In addition, the CC50 in the data set “in vitro” turned out to be 31 µM; with Huh7 (line of COXV A7 WP Parker), 30 µM; in the data set on Huh7 (line of COXV A18 G13), 32 µM; in the data set with Huh7 (line of COXV B1 Conn5), 31 µM; with Huh7 (line of COXV B2 Ohio 1), 34 µM; with Huh7 (line of COXV B3 HA 201933), 46 µM. Besides, the CC50 was 32 µM with Huh7 (line of COXV B3 Nancy); 16 µM in the data set with Huh7 (line of COXV B4 JVB); 91 µM in data set [8] (line of EV68 US/KY/14-18953); 50 µM in data set [8] (line of EV71 Tainan/4643/98); 32 µM in data set [9]; > 100 µM in the data set on HeLa. For the same compound, in [10], the CC50 is > 100 µM.

By IC50 is commonly meant the point on the concentration scale where inhibition reaches its midpoint. A word on the EC50: it is the concentration giving half of the maximal effect.
